ChEMBL document CHEMBL3045052, “Effect of the lipophilic parameter (log P) on the anti-parasitic activity of imidazo[1,2-a]pyridine derivatives” (Med Chem Res, 2012)
In brackets after ≈: the same amount, converted by molar mass.

Experiments:
Trichomonas vaginalis [1] = assay: Antiparasitic activity against Trichomonas vaginalis GT3 after 48 hr by Alamar blue assay; assay type: functional, organism-based; settings: GT3, 48 h
[2] = Partition coefficient, log P of compound at 1:1 1-octanol/water volume ratio by spectrophotometer; assay type: physicochemical
Trichomonas vaginalis [3] = assay: Antiparasitic activity against Trichomonas vaginalis GT3 after 24 hr by Alamar blue assay; assay type: functional; settings: GT3, 24 h
[4] = Partition coefficient, log P of compound at 2:1 1-octanol/water volume ratio by spectrophotometer; assay type: physicochemical
[5] = Partition coefficient, log P of compound at 1:2 1-octanol/water volume ratio by spectrophotometer; assay type: physicochemical

| Structure (SMILES) | MIC (Trichomonas vaginalis [1]) | logP [2] | MIC (Trichomonas vaginalis [3]) | logP [4] | logP [5] | EC50 (Trichomonas vaginalis [1]) |
| --- | --- | --- | --- | --- | --- | --- |
| O=[N+]([O-])c1cnc2ccccn12 | 3.07 µM (≈ 0.501 µg/mL) | 0.938 | 3.01 µM (≈ 0.491 µg/mL) | 0.922 | 0.96 | 2.45 µM |
| CCOC(=O)c1nc2ccccn2c1[N+](=O)[O-] | 2.13 µM (≈ 0.501 µg/mL) | 0.983 | 2.13 µM (≈ 0.501 µg/mL) | 0.963 | 1.04 | 3.96 µM |
| O=C(O)c1nc2ccccn2c1[N+](=O)[O-] | 19.3 µM (≈ 4 µg/mL) | -0.041 | 19.3 µM (≈ 4 µg/mL) | -0.038 | -0.042 | 21.1 µM |
| CCOC(=O)c1nc2cccc(C)n2c1[N+](=O)[O-] | 4.02 µM (≈ 1 µg/mL) | 1.27 | 4.02 µM (≈ 1 µg/mL) | 1.3 | 1.2 | 9.11 µM |
| N#Cc1nc2ccccn2c1[N+](=O)[O-] | 2.66 µM (≈ 0.5 µg/mL) | 0.691 | 5.32 µM (≈ 1 µg/mL) | 0.692 | 0.641 | 9.68 µM |
| Cc1cccc2nc(C#N)c([N+](=O)[O-])n12 | 2.48 µM (≈ 0.501 µg/mL) | 1.19 | 4.95 µM (≈ 1 µg/mL) | 1.08 | 1.12 | 12.1 µM |
| Cc1cccc2nc(NC3CCCCC3)c([N+](=O)[O-])n12 | 29.2 µM (≈ 8.01 µg/mL) | 1.56 | 58.4 µM (≈ 16 µg/mL) | 1.5 | 1.5 | 64.3 µM |
| Cc1ncc([N+](=O)[O-])n1CCO [METRONIDAZOLE] | 2.92 µM (≈ 0.5 µg/mL) | 0.12 | 2.92 µM (≈ 0.5 µg/mL) | 0.115 | 0.11 | 1.2 µM |

Now from value to molecule, other results behind:

| MIC (Trichomonas vaginalis [1]) | logP [2] | MIC (Trichomonas vaginalis [3]) | logP [4] | logP [5] | Structure (SMILES) | EC50 (Trichomonas vaginalis [1]) |
| --- | --- | --- | --- | --- | --- | --- |
| 9.71 µM (≈ 2 µg/mL) | -0.515 | 9.71 µM (≈ 2 µg/mL) | -0.54 | -0.569 | NC(=O)c1nc2ccccn2c1[N+](=O)[O-] | 41.3 µM |
| 9.09 µM (≈ 2 µg/mL) | 0.67 | 9.09 µM (≈ 2 µg/mL) | 0.695 | 0.69 | Cc1cccc2nc(C(N)=O)c([N+](=O)[O-])n12 | 14.6 µM |
| 30.8 µM (≈ 8.02 µg/mL) | 1.54 | 61.5 µM (≈ 16 µg/mL) | 1.5 | 1.5 | O=[N+]([O-])c1c(NC2CCCCC2)nc2ccccn12 | 61.5 µM |
